The text below walks through data of patent US10150737B2, “Compounds for controlling arthropods” (priority 2013, dated 2018).

The subject of one data set is Tetranychus urticae. Put plainly: Tetranychus urticae - spray test, OP-resistant. It counts as in vivo. The note with it: bean leaf discs, after 6 days. Put shortly: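 Mortality (%) read on day 6 after spraying Phaseolus vulgaris leaf discs carrying all mite stages with formulations at the desired concentration. Formulation: active ingredient in acetone plus dimethylformamide, made up with emulsifier-containing water (1000 ppm alkylaryl polyglycol ether).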

Another data set deals with Myzus persicae. Description: Myzus persicae - spray test. Type of data set: in vivo. The note with it: Chinese cabbage leaf discs, after 6 days. In a few lines:
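Mortality of the green peach aphid, as % killed, was read 6 days after spraying infested Brassica pekinensis leaf discs. Compound formulated in acetone/dimethylformamide and made up with emulsifier-containing (1000 ppm) water.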

The test system of another data set is Lucilia cuprina. Description: Lucilia cuprina test. It counts as in vivo. The note with it: application rate 100 ppm; L1 larvae; after 2 days. In a few lines:
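Mortality (%) of first-instar blowfly larvae, about 20 per vessel, recorded 2 days after exposure to compound-treated minced horsemeat. Compound dissolved in dimethyl sulphoxide, then water-diluted to the desired concentration.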

The subject of another data set is Rhipicephalus sanguineus. Description: Rhipicephalus sanguineus - in vitro contact tests with adult brown dog ticks. The note with it: application rate 5 μg/cm2; after 48 h; ticks dead or moribund. Type of data set: in vivo. How it is done: For the coating of the test tubes, 9 mg of active ingredient are first dissolved in 1 ml of acetone p.a. and then diluted to the desired concentration with acetone p.a. 250 μl of the solution are distributed homogeneously on the inner walls and base of a 25 ml test tube by turning and rocking on an orbital shaker (rocking rotation at 30 rpm for 2 h). With 900 ppm active ingredient solution and internal surface 44.7 cm^2, given homogeneous distribution, an area-based dose of 5 μg/cm^2 is achieved.
After the solvent has evaporated off, the tubes are populated with 5-10 adult dog ticks (Rhipicephalus sanguineus), sealed with a perforated plastic lid and incubated in a horizontal position in the dark at room temperature and ambient humidity. After 48 h, efficacy is determined. To this end, the ticks are knocked to the floor of the tube and incubated on a hotplate at 45-50° C. for not more than 5 min. Ticks which remain motionless on the floor or move in such an uncoordinated manner that they are unable to deliberately avoid the heat by climbing upwards are considered to be dead or moribund.
An efficacy of 100% means that all the ticks were dead or moribund. 0% efficacy means that none of the ticks had been harmed.

The next data set has as its system Spodoptera frugiperda. Description: Spodoptera frugiperda - spray test. The note with it: caterpillars on maize leaf discs, after 7 days. It counts as in vivo. In a few lines: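 Percent mortality of Spodoptera frugiperda caterpillars scored 7 days after placing them on dried maize leaf discs sprayed at the desired concentration. Spray formulation: compound dissolved in acetone/dimethylformamide, made up with water containing 1000 ppm emulsifier.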

Data set [1] has as its system Boophilus microplus Parkhurst strain, SP-resistant. Description: Boophilus microplus - dip test. Type of data set: in vivo. The note with it: application rate 100 ppm; dip of engorged adult female ticks; after 7 days. How it is done: Test animals: cattle ticks (Boophilus microplus) Parkhurst strain, SP-resistant
Solvent: dimethyl sulphoxide
10 mg of active ingredient are dissolved in 0.5 ml of dimethyl sulphoxide. For the purpose of producing a suitable formulation, the active ingredient solution is diluted with water to the concentration desired in each case.
This active ingredient formulation is pipetted into tubes. 8-10 adult engorged female cattle ticks (Boophilus microplus) are transferred into a further tube with holes. The tube is immersed into the active ingredient formulation, and all the ticks are completely wetted. After the liquid has run out, the ticks are transferred on filter discs into plastic dishes and stored in a climate-controlled room.
Efficacy is assessed after 7 days by laying of fertile eggs. Eggs which are not visibly fertile are stored in a climate-controlled cabinet until the larvae hatch after about 42 days. An efficacy of 100% means that none of the ticks has laid any fertile eggs; 0% means that all the eggs are fertile.

A further data set relates to Phaedon cochleariae. Description: Phaedon cochleariae - spray test. The note with it: larvae on Chinese cabbage leaf discs, after 7 days. It counts as in vivo. Put shortly: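 Mortality of mustard beetle larvae was scored as % at day 7 on Brassica pekinensis leaf discs. Discs had been treated by spraying at the desired concentration, using an acetone/dimethylformamide solution diluted in water with 1000 ppm alkylaryl polyglycol ether, and dried before larvae were added.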

The next data set concerns Musca domestica. Description: Musca domestica test. Type of data set: in vivo. The note with it: application rate 100 ppm; adult houseflies; after 2 days. Put shortly:
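Water-diluted DMSO stock of compound, mixed onto a sugar-treated sponge, served as the sole exposure route for ten adult houseflies. Kill percentage scored at 2 days.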

The test system of data set [2] is Ctenocephalides felis. Description: Ctenocephalides felis - in vitro contact tests with adult cat fleas. It counts as in vivo. The note with it: application rate 5 μg/cm2 (=500 g/ha); after 48 h; fleas dead or moribund. Put shortly:
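Efficacy, as percentage of fleas dead or moribund, was scored at 48 h by knocking fleas to the tube base. Exposure was by contact with a dried acetone film of compound at 5 μg/cm^2 area dose; 5–10 adults per tube, room temperature, ambient humidity.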

The test system of a further data set is Boophilus microplus. Description: Boophilus microplus - injection test. It counts as in vivo. The note with it: application rate 20 μg/animal; injection into engorged adult female ticks; after 7 days. Put shortly:
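Five engorged adult female cattle ticks each received a 1 μl abdominal injection of compound solution in dimethyl sulphoxide. Fertile egg laying was assessed at 7 days, with doubtful eggs incubated about 42 days until hatch. 0% efficacy means all eggs fertile.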

The nature of data set [3]: logP determination by HPLC on a reversed-phase column (C18). Type of data set: physicochemical. The note with it: for log P: HPLC-MS; for logP^a): HPLC-MS method a); for logP: HPLC, C18 reversed phase, acetonitrile/water with formic acid, EEC Directive 79/831 Annex V.A8.
Data set [4] deals with Ctenocephalides felis. Description: Ctenocephalides felis - oral test. Type of data set: in vivo. The note with it: application rate 100 ppm in citrated cattle blood; after 2 days. In a few lines:
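Roughly 20 unfed adult C. felis imbibe compound-dosed citrated cattle blood (DMSO formulation) across parafilm from a cylinder above their gauze chamber; percentage mortality recorded at day 2.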

The mark [5] stands for this setting: reversed-phase column (C18), Table I-T3.

SMILES strings stand for the structures.

As usually defined, the log P is a log measure of how a compound divides between an organic and an aqueous phase. Read a high log P as higher lipophilicity. Regarding `Cc1cc(C(F)(C(F)(F)F)C(F)(F)F)cc(I)c1-n1cc(-c2ccc(Cl)c(C(=O)NC3CC3)c2)cn1` [I-T3-175], the efficacy in the data set on Tetranychus urticae (application rate 100 g/ha), with Myzus persicae (application rate 100 g/ha), in the data set on Rhipicephalus sanguineus, with Spodoptera frugiperda (application rate 100 g/ha), in the data set on Phaedon cochleariae (application rate 100 g/ha) and with Ctenocephalides felis [2] was 100% throughout. The “efficacy (kill)” value in the data set on Lucilia cuprina, in the data set on Musca domestica and in the data set on Ctenocephalides felis [4] was 100% each time. The “efficacy (laying of fertile eggs)” value (in data set [1]; in the data set on Boophilus microplus) was 100% each time. The “log P” value in data set [3] (setting [5]) came out at 4.5.
Regarding `CCc1cc(C(F)(F)C(F)(F)F)cc(C)c1-n1cc(-c2ccc(Cl)c(C(=O)NC3(C#N)CC3)c2)cn1` [I-T3-80], the efficacy is on record as 100% with Tetranychus urticae (application rate 100 g/ha); 90% in the data set with Myzus persicae (application rate 100 g/ha); 80% with Rhipicephalus sanguineus; 100% in the data set with Spodoptera frugiperda (application rate 100 g/ha); 100% in the data set with Phaedon cochleariae (application rate 100 g/ha); 100% with Ctenocephalides felis [2]. Moreover, the “efficacy (kill)” value with Lucilia cuprina, in the data set with Musca domestica and in the data set on Ctenocephalides felis [4] was 100% throughout. For the same compound, the “efficacy (laying of fertile eggs)” value in [1] came out at 80%; in the data set on Boophilus microplus, 100%. For the same compound, the “logP^a)” value in data set [3] and in [3] (setting [5]) was 4.2 throughout.
In general, logP refers to a log measure of how a compound divides between an organic and an aqueous phase. For the compound `Cc1cc(C(F)(C(F)(F)F)C(F)(F)F)cc(C(F)(F)F)c1-c1cc(-c2cnc(Cl)c(C(=O)NC3(C#N)CC3)c2)on1` [I-T22-4], the efficacy in the data set with Tetranychus urticae (application rate 100 g/ha), with Rhipicephalus sanguineus and in the data set with Phaedon cochleariae (application rate 100 g/ha) was 100% in each case. Further, the “efficacy (laying of fertile eggs)” value (in data set [1]; in the data set on Boophilus microplus) was 100% each time. Further, in [3], the logP is listed as 4.4. In the data set with Ctenocephalides felis [4], the “efficacy (kill)” value was determined as 100%.
As for `Cc1cc(C(F)(C(F)(F)F)C(F)(F)F)cc(I)c1-n1cc(-c2ccc(Cl)c(C(=O)NC3(C#N)CC3)c2)cn1` [I-T3-176], the efficacy with Tetranychus urticae (application rate 100 g/ha), in the data set with Myzus persicae (application rate 100 g/ha), in the data set with Rhipicephalus sanguineus, in the data set with Spodoptera frugiperda (application rate 100 g/ha), in the data set on Phaedon cochleariae (application rate 100 g/ha) and in the data set on Ctenocephalides felis [2] was 100% in each case. In addition, the “efficacy (kill)” value in the data set with Lucilia cuprina, in the data set with Musca domestica and with Ctenocephalides felis [4] was 100% throughout. In addition, the “efficacy (laying of fertile eggs)” value (in [1]; in the data set on Boophilus microplus) was 100% throughout. In addition, the “log P” value in data set [3] (setting [5]) stood at 4.4.
As to `O=C(NC1CC1)c1cc(-c2cnn(-c3c(Br)cc(C(F)(C(F)(F)F)C(F)(F)F)cc3C(F)(F)F)c2)cnc1Cl` [I-T3-160], the efficacy amounted to 100% with Tetranychus urticae (application rate 100 g/ha); 90% in the data set with Myzus persicae (application rate 100 g/ha); 100% with Rhipicephalus sanguineus; 100% in the data set on Spodoptera frugiperda (application rate 100 g/ha); 100% in the data set with Phaedon cochleariae (application rate 100 g/ha); 100% with Ctenocephalides felis [2]. The “efficacy (kill)” value with Lucilia cuprina, in the data set with Musca domestica and in the data set on Ctenocephalides felis [4] was 100% throughout. The “efficacy (laying of fertile eggs)” value (in data set [1]; with Boophilus microplus) was 100% throughout. Also, the “logP^a)” value in data set [3] (reversed-phase column (C18)) stood at 4.0. In addition, in [3] (setting [5]), the “log P” value was found to be 4.0.
Turning to `N#CC1(NC(=O)c2cc(-c3cnn(-c4c(Br)cc(C(F)(C(F)(F)F)C(F)(F)F)cc4C(F)(F)F)c3)cnc2Cl)CC1` [I-T3-165], the efficacy in the data set on Tetranychus urticae (application rate 100 g/ha), in the data set with Myzus persicae (application rate 100 g/ha), in the data set with Rhipicephalus sanguineus, with Spodoptera frugiperda (application rate 100 g/ha), in the data set with Phaedon cochleariae (application rate 100 g/ha) and in the data set on Ctenocephalides felis [2] was 100% throughout. The “efficacy (kill)” value in the data set with Lucilia cuprina, in the data set on Musca domestica and in the data set with Ctenocephalides felis [4] was 100% each time. Besides, the “efficacy (laying of fertile eggs)” value (in data set [1]; with Boophilus microplus) was 100% throughout. Further, the “log P” value in data set [3] (setting [5]) was determined as 3.9.
For the compound `Cc1cc(C(F)(C(F)(F)F)C(F)(F)F)cc(C(F)(F)F)c1-c1cc(-c2ccc(Cl)c(C(=O)NC3(C#N)CC3)c2)on1` [I-T22-7], the efficacy in the data set with Tetranychus urticae (application rate 100 g/ha), with Myzus persicae (application rate 100 g/ha), in the data set on Rhipicephalus sanguineus, with Spodoptera frugiperda (application rate 100 g/ha), in the data set with Phaedon cochleariae (application rate 100 g/ha) and in the data set on Ctenocephalides felis [2] was 100% throughout. For the same compound, the “efficacy (kill)” value in the data set with Lucilia cuprina, in the data set with Musca domestica and in the data set on Ctenocephalides felis [4] was 100% throughout. The “efficacy (laying of fertile eggs)” value (in data set [1]; in the data set on Boophilus microplus) was 100% throughout. The logP in data set [3] is on record as 4.7.
Consider `Cc1cc(C(F)(C(F)(F)F)C(F)(F)F)cc(C(F)(F)F)c1-c1cc(-c2cnc(Cl)c(C(=O)NC3CC3)c2)on1` [I-T22-6], for which the results for the “efficacy (kill)” value with Lucilia cuprina, in the data set with Musca domestica and in the data set on Ctenocephalides felis [4] were 100%, 90% and 95%, respectively. The efficacy in the data set with Rhipicephalus sanguineus and with Phaedon cochleariae (application rate 100 g/ha) was 100% each time. Besides, the “efficacy (laying of fertile eggs)” value (in data set [1]; in the data set with Boophilus microplus) was 100% in each case. This compound also had a lipophilicity (logP) in data set [3] of 4.5.
In the case of `CCc1cc(C(F)(C(F)(F)F)C(F)(F)F)cc(C)c1-n1cc(-c2ccc(Cl)c(C(=O)NC3(C#N)CC3)c2)cn1` [I-T3-46], the efficacy in the data set on Tetranychus urticae (application rate 500 g/ha), in the data set on Myzus persicae (application rate 500 g/ha), with Rhipicephalus sanguineus, in the data set on Spodoptera frugiperda (application rate 500 g/ha), with Phaedon cochleariae (application rate 500 g/ha) and with Ctenocephalides felis [2] was 100% throughout. Also, the “efficacy (kill)” value with Lucilia cuprina, with Musca domestica and in the data set with Ctenocephalides felis [4] was 100% each time. The “efficacy (laying of fertile eggs)” value in the data set on Boophilus microplus is 100%. Besides, the “logP^a)” value in data set [3] and in data set [3] (setting [5]) was 4.6 each time.
